From paper PMC5218480 (PLoS ONE, 2017)

Test system: MV-4-11 cells
Assay: Gene expression microarray analysis (Affymetrix PrimeView) and GSEA
Assay type: cell-based, human
Design: RFU PODN (11730768_x_at) / Fold change /veh PODN (11730768_x_at) / RFU LINC00158 (11744669_a_at) / Fold change /veh LINC00158 (11744669_a_at) / RFU DUSP10 (11751237_a_at) / Fold change /veh DUSP10 (11751237_a_at) / RFU ID3 (11757404_x_at) / Fold change /veh ID3 (11757404_x_at) / RFU PLEKHG5 (11737974_s_at) / Fold change /veh PLEKHG5 (11737974_s_at) / RFU LRRC4B (11730491_at) / Fold change /veh LRRC4B (11730491_at) / RFU GIMAP4 (11747438_a_at) / Fold change /veh GIMAP4 (11747438_a_at) / RFU KRT8 (11758183_x_at) / Fold change /veh KRT8 (11758183_x_at) / RFU CNN1 (11734310_a_at) / Fold change /veh CNN1 (11734310_a_at) / RFU VPS37D (11726825_at) / Fold change /veh VPS37D (11726825_at) / RFU C10orf10 (11716522_x_at) / Fold change /veh C10orf10 (11716522_x_at) / RFU KIR2DL2 /// KIR2DL4 /// KIR2DL5A /// KIR2DL5B /// KIR2DS1 /// KIR2DS2 /// KIR2DS3 /// KIR2DS4 /// KIR3DL3 /// KIR3DL3 /// KIR3DS1 (11738374_at) / Fold change /veh KIR2DL2 /// KIR2DL4 /// KIR2DL5A /// KIR2DL5B /// KIR2DS1 /// KIR2DS2 /// KIR2DS3 /// KIR2DS4 /// KIR3DL3 /// KIR3DL3 /// KIR3DS1 (11738374_at) / RFU C1QL1 (11718748_at) / Fold change /veh C1QL1 (11718748_at) / RFU TMPRSS4 (11747572_a_at) / Fold change /veh TMPRSS4 (11747572_a_at) / RFU HAMP (11756126_x_at) / Fold change /veh HAMP (11756126_x_at) / RFU RNFT2 (11725882_a_at) / Fold change /veh RNFT2 (11725882_a_at) / RFU NR4A2 (11747474_a_at) / Fold change /veh NR4A2 (11747474_a_at) / RFU ABCC12 (11746883_a_at) / Fold change /veh ABCC12 (11746883_a_at) / RFU TMEM136 (11760407_x_at) / Fold change /veh TMEM136 (11760407_x_at) / RFU CLDN22 /// WWC2 (11732394_at) / Fold change /veh CLDN22 /// WWC2 (11732394_at) / RFU HLA-DPB1 (11760878_x_at) / Fold change /veh HLA-DPB1 (11760878_x_at) / RFU SPINT1 (11716480_a_at) / Fold change /veh SPINT1 (11716480_a_at) / RFU GAP43 (11754022_s_at) / Fold change /veh GAP43 (11754022_s_at) / RFU A4GNT (11735810_at) / Fold change /veh A4GNT (11735810_at) / RFU PRB3 (11715151_x_at) / Fold change /veh PRB3 (11715151_x_at) / RFU TUBB4B (11761932_at) / Fold change /veh TUBB4B (11761932_at) / RFU CAPN14 (11732068_a_at) / Fold change /veh CAPN14 (11732068_a_at) / RFU TMCC2 (11721928_a_at) / Fold change /veh TMCC2 (11721928_a_at) / RFU IRGQ (11745062_a_at) / Fold change /veh IRGQ (11745062_a_at) / RFU FAM174B (11720279_a_at) / Fold change /veh FAM174B (11720279_a_at) / RFU TMPRSS4 (11748680_a_at) / Fold change /veh TMPRSS4 (11748680_a_at) / RFU FAM212B (11763350_a_at) / Fold change /veh FAM212B (11763350_a_at) / RFU PLEKHG5 (11743358_a_at) / Fold change /veh PLEKHG5 (11743358_a_at) / RFU ZSCAN30 (11745921_a_at) / Fold change /veh ZSCAN30 (11745921_a_at) / RFU CMKLR1 (11741424_a_at) / Fold change /veh CMKLR1 (11741424_a_at) / RFU LOC101060620 /// MAPK8IP1 (11723275_at) / Fold change /veh LOC101060620 /// MAPK8IP1 (11723275_at) / RFU SPTSSB (11747773_x_at) / Fold change /veh SPTSSB (11747773_x_at) / RFU PRSS12 (11739890_at) / Fold change /veh PRSS12 (11739890_at) / RFU BIN1 (11741810_x_at) / Fold change /veh BIN1 (11741810_x_at) / RFU WNT11 (11732464_a_at) / Fold change /veh WNT11 (11732464_a_at) / RFU C10orf10 (11716521_a_at) / Fold change /veh C10orf10 (11716521_a_at) / RFU C5orf56 (11738089_at) / Fold change /veh C5orf56 (11738089_at) / RFU CYB561 (11721691_x_at) / Fold change /veh CYB561 (11721691_x_at) / RFU ANKRD19P (11752326_a_at) / Fold change /veh ANKRD19P (11752326_a_at) / RFU OR2T12 /// OR2T33 /// OR2T8 (11738714_s_at) / Fold change /veh OR2T12 /// OR2T33 /// OR2T8 (11738714_s_at) / RFU VCAN (11748164_a_at) / Fold change /veh VCAN (11748164_a_at) / RFU JSRP1 (11732532_at) / Fold change /veh JSRP1 (11732532_at) / RFU KRTAP10-11 (11738290_x_at) / Fold change /veh KRTAP10-11 (11738290_x_at) / RFU MYO3A (11730013_a_at) / Fold change /veh MYO3A (11730013_a_at) / RFU EBF3 (11725865_a_at) / Fold change /veh EBF3 (11725865_a_at) / RFU CAMK2N1 (11719241_x_at) / Fold change /veh CAMK2N1 (11719241_x_at) / RFU C5orf56 (11738088_a_at) / Fold change /veh C5orf56 (11738088_a_at) / RFU OLFML3 (11715873_a_at) / Fold change /veh OLFML3 (11715873_a_at) / RFU LOC100653217 /// NTM (11731650_a_at) / Fold change /veh LOC100653217 /// NTM (11731650_a_at) / RFU MAPK11 (11762145_a_at) / Fold change /veh MAPK11 (11762145_a_at) / RFU FIZ1 (11724087_x_at) / Fold change /veh FIZ1 (11724087_x_at) / RFU OASL (11726364_x_at) / Fold change /veh OASL (11726364_x_at) / RFU SOX15 (11748057_x_at) / Fold change /veh SOX15 (11748057_x_at) / RFU CD79A (11719716_a_at) / Fold change /veh CD79A (11719716_a_at) / RFU HIST1H1D (11736915_at) / Fold change /veh HIST1H1D (11736915_at) / RFU CASKIN2 (11723855_a_at) / Fold change /veh CASKIN2 (11723855_a_at) / RFU LOC730098 (11760151_x_at) / Fold change /veh LOC730098 (11760151_x_at) / RFU OR4N2 (11742367_at) / Fold change /veh OR4N2 (11742367_at) / RFU PRRT2 (11749266_a_at) / Fold change /veh PRRT2 (11749266_a_at) / RFU SNX32 (11753110_a_at) / Fold change /veh SNX32 (11753110_a_at) / RFU CDHR5 (11726645_a_at) / Fold change /veh CDHR5 (11726645_a_at) / RFU RCAN1 (11760418_a_at) / Fold change /veh RCAN1 (11760418_a_at) / RFU FAM167A (11723789_a_at) / Fold change /veh FAM167A (11723789_a_at) / RFU FAM26E (11764081_at) / Fold change /veh FAM26E (11764081_at) / RFU ISYNA1 (11749810_s_at) / Fold change /veh ISYNA1 (11749810_s_at) / RFU ACY1 (11761880_at) / Fold change /veh ACY1 (11761880_at) / RFU 11764098_at / Fold change /veh 11764098_at / RFU SAMD14 (11745864_x_at) / Fold change /veh SAMD14 (11745864_x_at) / RFU NPB (11741838_a_at) / Fold change /veh NPB (11741838_a_at) / RFU TMPRSS6 (11731388_a_at) / Fold change /veh TMPRSS6 (11731388_a_at) / RFU KRTAP10-2 (11738614_at) / Fold change /veh KRTAP10-2 (11738614_at) / RFU ARHGAP8 /// PRR5-ARHGAP8 (11727945_x_at) / Fold change /veh ARHGAP8 /// PRR5-ARHGAP8 (11727945_x_at) / RFU KRTAP5-7 /// NADSYN1 (11734609_at) / Fold change /veh KRTAP5-7 /// NADSYN1 (11734609_at) / RFU RASL12 (11751679_a_at) / Fold change /veh RASL12 (11751679_a_at) / RFU CDKN2B (11736163_a_at) / Fold change /veh CDKN2B (11736163_a_at) / RFU PRF1 (11729649_at) / Fold change /veh PRF1 (11729649_at) / RFU, ZNF638 /// ZNF638-IT1 / Fold change vs veh, ZNF638 /// ZNF638-IT1 / RFU, PANK3 / Fold change vs veh, PANK3 / RFU, SH3YL1 / Fold change vs veh, SH3YL1 / RFU, ZEB2 / Fold change vs veh, ZEB2 / RFU, NRIP1 / Fold change vs veh, NRIP1 / RFU, PTTG1IP / Fold change vs veh, PTTG1IP / RFU, CAPN2 / Fold change vs veh, CAPN2 / RFU, MED14 / Fold change vs veh, MED14 / RFU, SNORA58 / Fold change vs veh, SNORA58 / RFU, C1orf63 / Fold change vs veh, C1orf63 / RFU, LRRFIP1 / Fold change vs veh, LRRFIP1 / RFU, NDUFAF7 / Fold change vs veh, NDUFAF7 / RFU, SLC12A2 / Fold change vs veh, SLC12A2 / RFU, IBTK / Fold change vs veh, IBTK / RFU, ESF1 / Fold change vs veh, ESF1 / Fold change vs veh, TMEM50B / RFU, TAOK1 / Fold change vs veh, TAOK1 / RFU, ACBD3 / Fold change vs veh, ACBD3 / RFU, TMA16 / Fold change vs veh, TMA16 / RFU, RWDD3 / Fold change vs veh, RWDD3 / RFU, BCAT1 / Fold change vs veh, BCAT1 / RFU, EDEM3 / Fold change vs veh, EDEM3 / RFU, TMEM33 / Fold change vs veh, TMEM33 / RFU, WDR75 / Fold change vs veh, WDR75 / RFU, AHCTF1 / Fold change vs veh, AHCTF1 / RFU, TFRC / Fold change vs veh, TFRC / RFU, ZDHHC17 / Fold change vs veh, ZDHHC17 / RFU, NOM1 / Fold change vs veh, NOM1 / RFU, ARL8B / Fold change vs veh, ARL8B / RFU, ZBTB11 / Fold change vs veh, ZBTB11 / RFU, TAMM41 / Fold change vs veh, TAMM41 / RFU, KIAA1704 /// LOC100996395 / Fold change vs veh, KIAA1704 /// LOC100996395 / RFU, ING1 / Fold change vs veh, ING1 / RFU, TRMT61B / Fold change vs veh, TRMT61B / RFU, FUBP3 / Fold change vs veh, FUBP3 / RFU, TP53 / Fold change vs veh, TP53 / RFU, TNKS2 / Fold change vs veh, TNKS2 / RFU, ZFP14 / Fold change vs veh, ZFP14 / RFU, ACTR2 / Fold change vs veh, ACTR2 / RFU, PPP3R1 / Fold change vs veh, PPP3R1 / RFU, PIK3R1 / Fold change vs veh, PIK3R1 / RFU, HNRNPA1 / Fold change vs veh, HNRNPA1 / RFU, RNF170 / Fold change vs veh, RNF170 / RFU, ZNF28 / Fold change vs veh, ZNF28 / RFU, RNGTT / Fold change vs veh, RNGTT / RFU, OGT / Fold change vs veh, OGT / RFU, BRD1 / Fold change vs veh, BRD1 / RFU, MARS / Fold change vs veh, MARS / RFU, ZNF655 / Fold change vs veh, ZNF655 / RFU, FAHD1 / Fold change vs veh, FAHD1 / RFU, BDP1 / Fold change vs veh, BDP1 / RFU, LRRCC1 / Fold change vs veh, LRRCC1 / RFU, ARID1A / Fold change vs veh, ARID1A / RFU, ZNF146 / Fold change vs veh, ZNF146 / RFU, ZNF330 / Fold change vs veh, ZNF330 / RFU, GPN3 / Fold change vs veh, GPN3 / RFU, C9orf123 / Fold change vs veh, C9orf123 / RFU, N4BP2L2 / Fold change vs veh, N4BP2L2 / RFU, ARFIP1 / Fold change vs veh, ARFIP1 / RFU, FAM179B / Fold change vs veh, FAM179B / RFU, BCL10 / Fold change vs veh, BCL10 / RFU, UHRF1BP1L / Fold change vs veh, UHRF1BP1L / RFU, BET1 / Fold change vs veh, BET1 / RFU, CNOT2 / Fold change vs veh, CNOT2 / RFU, ZNF268 / Fold change vs veh, ZNF268 / Fold change vs veh, ZNF507 / RFU, DGCR2 / Fold change vs veh, DGCR2 / RFU, WDSUB1 / Fold change vs veh, WDSUB1 / Fold change vs veh, HSP90B1 /// MIR3652 / RFU, ADSS / Fold change vs veh, ADSS / RFU, GK / Fold change vs veh, GK / RFU, ZNF148 / Fold change vs veh, ZNF148 / RFU, TAF9 / Fold change vs veh, TAF9 / RFU, SLC1A5 / Fold change vs veh, SLC1A5 / RFU, SLMO2 / Fold change vs veh, SLMO2 / RFU, ABCC4 / Fold change vs veh, ABCC4 / RFU, LOC101060439 /// RAP1B / Fold change vs veh, LOC101060439 /// RAP1B / RFU, RFX7 / Fold change vs veh, RFX7 / RFU, GTPBP10 / Fold change vs veh, GTPBP10 / RFU, CNEP1R1 / Fold change vs veh, CNEP1R1 / RFU, BIVM-ERCC5 /// ERCC5 / Fold change vs veh, BIVM-ERCC5 /// ERCC5 / RFU, ILF3 / Fold change vs veh, ILF3 / RFU 11762660_at / Fold change /veh 11762660_at / RFU VCAN (11757783_s_at) / Fold change /veh VCAN (11757783_s_at) / RFU DDX43 (11728927_at) / Fold change /veh DDX43 (11728927_at) / RFU KRT8 (11758188_x_at) / Fold change /veh KRT8 (11758188_x_at) / RFU NKD1 (11759106_at) / Fold change /veh NKD1 (11759106_at) / RFU SRD5A1 (11742802_a_at) / Fold change /veh SRD5A1 (11742802_a_at) / RFU TPSAB1 /// TPSB2 (11721975_s_at) / Fold change /veh TPSAB1 /// TPSB2 (11721975_s_at) / RFU GSTM3 (11746129_a_at) / Fold change /veh GSTM3 (11746129_a_at) / RFU IL23R (11737362_x_at) / Fold change /veh IL23R (11737362_x_at) / RFU TMEM51 (11727254_a_at) / Fold change /veh TMEM51 (11727254_a_at) / RFU PIWIL2 (11732686_x_at) / Fold change /veh PIWIL2 (11732686_x_at) / RFU ORM1 (11744905_x_at) / Fold change /veh ORM1 (11744905_x_at) / RFU CCDC152 (11743942_at) / Fold change /veh CCDC152 (11743942_at) / RFU ECM1 (11717891_a_at) / Fold change /veh ECM1 (11717891_a_at) / RFU IL23R (11748794_a_at) / Fold change /veh IL23R (11748794_a_at) / RFU TNFAIP8L3 (11732012_x_at) / Fold change /veh TNFAIP8L3 (11732012_x_at) / RFU MBOAT4 (11741988_at) / Fold change /veh MBOAT4 (11741988_at) / RFU 11764193_at / Fold change /veh 11764193_at / RFU TMEM53 (11763286_at) / Fold change /veh TMEM53 (11763286_at) / RFU MAGEB2 (11727129_at) / Fold change /veh MAGEB2 (11727129_at) / RFU TMEM200A (11744735_a_at) / Fold change /veh TMEM200A (11744735_a_at) / RFU CCDC152 (11751479_a_at) / Fold change /veh CCDC152 (11751479_a_at) / RFU FAM211A (11726209_a_at) / Fold change /veh FAM211A (11726209_a_at) / RFU RGS16 (11746705_a_at) / Fold change /veh RGS16 (11746705_a_at) / RFU VCAN (11755009_s_at) / Fold change /veh VCAN (11755009_s_at) / RFU RHOB (11743442_s_at) / Fold change /veh RHOB (11743442_s_at) / RFU RGS16 (11720943_a_at) / Fold change /veh RGS16 (11720943_a_at) / RFU RGS16 (11720944_at) / Fold change /veh RGS16 (11720944_at) / RFU, VPS4B / Fold change vs veh, VPS4B / RFU, CREB1 / Fold change vs veh, CREB1 / RFU, DNAJC13 / Fold change vs veh, DNAJC13 / RFU, GNAQ / Fold change vs veh, GNAQ / RFU, CDK5R1 / Fold change vs veh, CDK5R1 / RFU, ZRANB3 / Fold change vs veh, ZRANB3 / RFU, CUL4A / Fold change vs veh, CUL4A / RFU, CCNY / Fold change vs veh, CCNY / RFU, UFL1 / Fold change vs veh, UFL1 / RFU, COG3 / Fold change vs veh, COG3 / RFU, DIAPH2 / Fold change vs veh, DIAPH2 / RFU, SKA2 / Fold change vs veh, SKA2 / RFU, AFF3 / Fold change vs veh, AFF3 / RFU, LMF1 / Fold change vs veh, LMF1 / RFU, IPO11 / Fold change vs veh, IPO11 / RFU, DFFB / Fold change vs veh, DFFB / RFU, FOXP1 / Fold change vs veh, FOXP1 / RFU, CARD8 / Fold change vs veh, CARD8 / RFU, STRN3 / Fold change vs veh, STRN3 / RFU, ADK / Fold change vs veh, ADK / RFU, RASSF2 / Fold change vs veh, RASSF2 / RFU, WIPF1 / Fold change vs veh, WIPF1 / RFU, LARP1B / Fold change vs veh, LARP1B / RFU, RASA1 / Fold change vs veh, RASA1 / RFU, RB1 / Fold change vs veh, RB1 / RFU, PPFIA1 / Fold change vs veh, PPFIA1 / RFU, MAT2A / Fold change vs veh, MAT2A / RFU, CCT5 / Fold change vs veh, CCT5 / RFU, WDR92 / Fold change vs veh, WDR92 / RFU, CUX1 / Fold change vs veh, CUX1 / RFU, TTC7A / Fold change vs veh, TTC7A / RFU, TMEM135 / Fold change vs veh, TMEM135 / RFU, DEPTOR / Fold change vs veh, DEPTOR / RFU, CPM / Fold change vs veh, CPM / RFU, DNAJB6 / Fold change vs veh, DNAJB6 / RFU, CACNA2D3 / Fold change vs veh, CACNA2D3 / RFU, DTX4 / Fold change vs veh, DTX4 / RFU, TFCP2 / Fold change vs veh, TFCP2 / RFU, GMCL1 /// GMCL1P1 / Fold change vs veh, GMCL1 /// GMCL1P1 / RFU, AEBP2 / Fold change vs veh, AEBP2 / RFU, SNHG1 /// SNORD22 /// SNORD25 /// SNORD26 /// SNORD27 /// SNORD28 /// SNORD29 /// SNORD31 / Fold change vs veh, SNHG1 /// SNORD22 /// SNORD25 /// SNORD26 /// SNORD27 /// SNORD28 /// SNORD29 /// SNORD31 / Fold change (Aza/veh), C12orf56 (ProbeSet 11735607_a_at) / Fold change (ACY-1035/veh), C12orf56 (ProbeSet 11735607_a_at) / Fold change (Aza/veh), FGFR1OP (ProbeSet 11751329_s_at) / Fold change (ACY-1035/veh), FGFR1OP (ProbeSet 11751329_s_at) / Fold change (Aza/veh), VPS36 (ProbeSet 11739960_a_at) / Fold change (ACY-1035/veh), VPS36 (ProbeSet 11739960_a_at) / RFU SYPL1 (11715823_x_at) / Fold change /veh SYPL1 (11715823_x_at) / RFU IGFBP7 (11715501_s_at) / Fold change /veh IGFBP7 (11715501_s_at) / RFU REEP3 (11722064_at) / Fold change /veh REEP3 (11722064_at) / RFU IGLL1 (11728026_x_at) / Fold change /veh IGLL1 (11728026_x_at): dose or concentration left out as unconfirmed
Conditions: MV-4-11 cells, 48 hours

In the case of `Nc1ccc(-c2cccs2)cc1NC(=O)c1ccc2c(c1)cc(C1CC1)n2CCN1CCOCC1` [ACY-1035], the “RFU NPB (11741838_a_at)” value is reported as 77.64 RFU.
